# Patent US20240407365A1, “Method for Treating Technical Products” (THOR GMBH, priority 2021, published 2024)
# Experiment: amount of CMIT remaining in water-based dispersion paint after storage, HPLC
# Assay type: physicochemical
# Conditions: paint pH 8.3
# Description: The amounts of 5-chloro-2-methyl-4-isothiazolinone and zinc oxide specified in Table 1 were added to and homogeneously incorporated in aliquots of a commercially available, preservative-free, water-based matt interior dispersion paint (pH: 8.3; binder: ethylene vinyl acetate; pigment volume concentration (PVC): 77%). After 30 to 45 minutes, the sodium pyrithione was then added. The controls used were samples containing chloro-2-methyl-4-isothiazolinone and sodium pyrithione without zinc oxide and samples containing chloro-2-methyl-4-isothiazolinone only. The samples were stored at 21° C. and, after the time intervals specified in Table 1 (4 hours, 24 hours, 72 hours, 168 hours and 336 hours), the amount of chloro-2-methyl-4-isothiazolinone remaining in the paint was determined with the aid of HPLC analyses.
# [1] = NaPy 0 ppm, CMIT 25 ppm, ZnO 0 ppm
# [2] = NaPy 0 ppm, CMIT 50 ppm, ZnO 0 ppm
# [3] = NaPy 0 ppm, CMIT 100 ppm, ZnO 0 ppm
# [4] = NaPy 130 ppm, CMIT 25 ppm, ZnO 0 ppm
# [5] = NaPy 130 ppm, CMIT 25 ppm, ZnO 75 ppm
# [6] = NaPy 130 ppm, CMIT 25 ppm, ZnO 150 ppm
# [7] = NaPy 130 ppm, CMIT 25 ppm, ZnO 225 ppm
# [8] = NaPy 130 ppm, CMIT 25 ppm, ZnO 300 ppm
# [9] = NaPy 130 ppm, CMIT 25 ppm, ZnO 375 ppm
# [10] = NaPy 130 ppm, CMIT 25 ppm, ZnO 450 ppm
# [11] = NaPy 130 ppm, CMIT 25 ppm, ZnO 525 ppm
# [12] = NaPy 130 ppm, CMIT 50 ppm, ZnO 0 ppm
# [13] = NaPy 130 ppm, CMIT 50 ppm, ZnO 75 ppm
# [14] = NaPy 130 ppm, CMIT 50 ppm, ZnO 150 ppm
# [15] = NaPy 130 ppm, CMIT 50 ppm, ZnO 225 ppm
# [16] = NaPy 130 ppm, CMIT 50 ppm, ZnO 300 ppm
# [17] = NaPy 130 ppm, CMIT 50 ppm, ZnO 375 ppm
# [18] = NaPy 130 ppm, CMIT 50 ppm, ZnO 450 ppm
# [19] = NaPy 130 ppm, CMIT 50 ppm, ZnO 525 ppm
# [20] = NaPy 130 ppm, CMIT 100 ppm, ZnO 0 ppm
# [21] = NaPy 130 ppm, CMIT 100 ppm, ZnO 75 ppm
# [22] = NaPy 130 ppm, CMIT 100 ppm, ZnO 150 ppm
# [23] = NaPy 130 ppm, CMIT 100 ppm, ZnO 225 ppm
# [24] = NaPy 130 ppm, CMIT 100 ppm, ZnO 300 ppm
# [25] = NaPy 130 ppm, CMIT 100 ppm, ZnO 375 ppm
# [26] = NaPy 130 ppm, CMIT 100 ppm, ZnO 450 ppm
# [27] = NaPy 130 ppm, CMIT 100 ppm, ZnO 525 ppm
smiles,measurement,setting,value
"Cn1sc(Cl)cc1=O [CIMT, 5-chloro-2-methyl-4-isothiazolinone]",CIMT [ppm] after storage at 21° C. 4 [h],[1],25 ppm
same,CIMT [ppm] after storage at 21° C. 24 h,[1],25 ppm
same,CIMT [ppm] after storage at 21° C. 72 h,[1],24 ppm
same,CIMT [ppm] after storage at 21° C. 168 h,[1],24 ppm
same,CIMT [ppm] after storage at 21° C. 336 h,[1],22 ppm
same,CIMT [ppm] after storage at 21° C. 4 [h],[2],50 ppm
same,CIMT [ppm] after storage at 21° C. 24 h,[2],50 ppm
same,CIMT [ppm] after storage at 21° C. 72 h,[2],49 ppm
same,CIMT [ppm] after storage at 21° C. 168 h,[2],47 ppm
same,CIMT [ppm] after storage at 21° C. 336 h,[2],47 ppm
same,CIMT [ppm] after storage at 21° C. 4 [h],[3],101 ppm
same,CIMT [ppm] after storage at 21° C. 24 h,[3],100 ppm
same,CIMT [ppm] after storage at 21° C. 72 h,[3],101 ppm
same,CIMT [ppm] after storage at 21° C. 168 h,[3],99 ppm
same,CIMT [ppm] after storage at 21° C. 336 h,[3],95 ppm
same,CIMT [ppm] after storage at 21° C. 4 [h],[4],<LOQ (below the limit of determination (<0.5 ppm CMIT))
same,CIMT [ppm] after storage at 21° C. 24 h,[4],<LOQ (below the limit of determination (<0.5 ppm CMIT))
same,CIMT [ppm] after storage at 21° C. 72 h,[4],<LOQ (below the limit of determination (<0.5 ppm CMIT))
same,CIMT [ppm] after storage at 21° C. 168 h,[4],<LOQ (below the limit of determination (<0.5 ppm CMIT))
same,CIMT [ppm] after storage at 21° C. 336 h,[4],<LOQ (below the limit of determination (<0.5 ppm CMIT))
same,CIMT [ppm] after storage at 21° C. 4 [h],[5],13 ppm
same,CIMT [ppm] after storage at 21° C. 24 h,[5],4 ppm
same,CIMT [ppm] after storage at 21° C. 72 h,[5],1 ppm
same,CIMT [ppm] after storage at 21° C. 168 h,[5],<LOQ (below the limit of determination (<0.5 ppm CMIT))
same,CIMT [ppm] after storage at 21° C. 336 h,[5],<LOQ (below the limit of determination (<0.5 ppm CMIT))
same,CIMT [ppm] after storage at 21° C. 4 [h],[6],19 ppm
same,CIMT [ppm] after storage at 21° C. 24 h,[6],11 ppm
same,CIMT [ppm] after storage at 21° C. 72 h,[6],6 ppm
same,CIMT [ppm] after storage at 21° C. 168 h,[6],2 ppm
same,CIMT [ppm] after storage at 21° C. 336 h,[6],<LOQ (below the limit of determination (<0.5 ppm CMIT))
same,CIMT [ppm] after storage at 21° C. 4 [h],[7],23 ppm
same,CIMT [ppm] after storage at 21° C. 24 h,[7],17 ppm
same,CIMT [ppm] after storage at 21° C. 72 h,[7],11 ppm
same,CIMT [ppm] after storage at 21° C. 168 h,[7],7 ppm
same,CIMT [ppm] after storage at 21° C. 336 h,[7],2 ppm
same,CIMT [ppm] after storage at 21° C. 4 [h],[8],24 ppm
same,CIMT [ppm] after storage at 21° C. 24 h,[8],21 ppm
same,CIMT [ppm] after storage at 21° C. 72 h,[8],14 ppm
same,CIMT [ppm] after storage at 21° C. 168 h,[8],12 ppm
same,CIMT [ppm] after storage at 21° C. 336 h,[8],6 ppm
same,CIMT [ppm] after storage at 21° C. 4 [h],[9],25 ppm
same,CIMT [ppm] after storage at 21° C. 24 h,[9],22 ppm
same,CIMT [ppm] after storage at 21° C. 72 h,[9],20 ppm
same,CIMT [ppm] after storage at 21° C. 168 h,[9],15 ppm
same,CIMT [ppm] after storage at 21° C. 336 h,[9],10 ppm
same,CIMT [ppm] after storage at 21° C. 4 [h],[10],26 ppm
same,CIMT [ppm] after storage at 21° C. 24 h,[10],22 ppm
same,CIMT [ppm] after storage at 21° C. 72 h,[10],22 ppm
same,CIMT [ppm] after storage at 21° C. 168 h,[10],19 ppm
same,CIMT [ppm] after storage at 21° C. 336 h,[10],12 ppm
same,CIMT [ppm] after storage at 21° C. 4 [h],[11],24 ppm
same,CIMT [ppm] after storage at 21° C. 24 h,[11],21 ppm
same,CIMT [ppm] after storage at 21° C. 72 h,[11],21 ppm
same,CIMT [ppm] after storage at 21° C. 168 h,[11],18 ppm
same,CIMT [ppm] after storage at 21° C. 336 h,[11],14 ppm
same,CIMT [ppm] after storage at 21° C. 4 [h],[12],3 ppm
same,CIMT [ppm] after storage at 21° C. 24 h,[12],<LOQ (below the limit of determination (<0.5 ppm CMIT))
same,CIMT [ppm] after storage at 21° C. 72 h,[12],<LOQ (below the limit of determination (<0.5 ppm CMIT))
same,CIMT [ppm] after storage at 21° C. 168 h,[12],<LOQ (below the limit of determination (<0.5 ppm CMIT))
same,CIMT [ppm] after storage at 21° C. 336 h,[12],<LOQ (below the limit of determination (<0.5 ppm CMIT))
same,CIMT [ppm] after storage at 21° C. 4 [h],[13],21 ppm
same,CIMT [ppm] after storage at 21° C. 24 h,[13],9 ppm
same,CIMT [ppm] after storage at 21° C. 72 h,[13],2 ppm
same,CIMT [ppm] after storage at 21° C. 168 h,[13],<LOQ (below the limit of determination (<0.5 ppm CMIT))
same,CIMT [ppm] after storage at 21° C. 336 h,[13],<LOQ (below the limit of determination (<0.5 ppm CMIT))
same,CIMT [ppm] after storage at 21° C. 4 [h],[14],31 ppm
same,CIMT [ppm] after storage at 21° C. 24 h,[14],19 ppm
same,CIMT [ppm] after storage at 21° C. 72 h,[14],11 ppm
same,CIMT [ppm] after storage at 21° C. 168 h,[14],8 ppm
same,CIMT [ppm] after storage at 21° C. 336 h,[14],1 ppm
same,CIMT [ppm] after storage at 21° C. 4 [h],[15],38 ppm
same,CIMT [ppm] after storage at 21° C. 24 h,[15],29 ppm
same,CIMT [ppm] after storage at 21° C. 72 h,[15],21 ppm
same,CIMT [ppm] after storage at 21° C. 168 h,[15],15 ppm
same,CIMT [ppm] after storage at 21° C. 336 h,[15],8 ppm
same,CIMT [ppm] after storage at 21° C. 4 [h],[16],47 ppm
same,CIMT [ppm] after storage at 21° C. 24 h,[16],42 ppm
same,CIMT [ppm] after storage at 21° C. 72 h,[16],34 ppm
same,CIMT [ppm] after storage at 21° C. 168 h,[16],24 ppm
same,CIMT [ppm] after storage at 21° C. 336 h,[16],14 ppm
same,CIMT [ppm] after storage at 21° C. 4 [h],[17],49 ppm
same,CIMT [ppm] after storage at 21° C. 24 h,[17],49 ppm
same,CIMT [ppm] after storage at 21° C. 72 h,[17],40 ppm
same,CIMT [ppm] after storage at 21° C. 168 h,[17],30 ppm
same,CIMT [ppm] after storage at 21° C. 336 h,[17],23 ppm
same,CIMT [ppm] after storage at 21° C. 4 [h],[18],50 ppm
same,CIMT [ppm] after storage at 21° C. 24 h,[18],47 ppm
same,CIMT [ppm] after storage at 21° C. 72 h,[18],42 ppm
same,CIMT [ppm] after storage at 21° C. 168 h,[18],35 ppm
same,CIMT [ppm] after storage at 21° C. 336 h,[18],28 ppm
same,CIMT [ppm] after storage at 21° C. 4 [h],[19],51 ppm
same,CIMT [ppm] after storage at 21° C. 24 h,[19],50 ppm
same,CIMT [ppm] after storage at 21° C. 72 h,[19],45 ppm
same,CIMT [ppm] after storage at 21° C. 168 h,[19],38 ppm
same,CIMT [ppm] after storage at 21° C. 336 h,[19],31 ppm
same,CIMT [ppm] after storage at 21° C. 4 [h],[20],8 ppm
same,CIMT [ppm] after storage at 21° C. 24 h,[20],<LOQ (below the limit of determination (<0.5 ppm CMIT))
same,CIMT [ppm] after storage at 21° C. 72 h,[20],<LOQ (below the limit of determination (<0.5 ppm CMIT))
same,CIMT [ppm] after storage at 21° C. 168 h,[20],<LOQ (below the limit of determination (<0.5 ppm CMIT))
same,CIMT [ppm] after storage at 21° C. 336 h,[20],<LOQ (below the limit of determination (<0.5 ppm CMIT))
same,CIMT [ppm] after storage at 21° C. 4 [h],[21],37 ppm
same,CIMT [ppm] after storage at 21° C. 24 h,[21],25 ppm
same,CIMT [ppm] after storage at 21° C. 72 h,[21],13 ppm
same,CIMT [ppm] after storage at 21° C. 168 h,[21],6 ppm
same,CIMT [ppm] after storage at 21° C. 336 h,[21],<LOQ (below the limit of determination (<0.5 ppm CMIT))
same,CIMT [ppm] after storage at 21° C. 4 [h],[22],52 ppm
same,CIMT [ppm] after storage at 21° C. 24 h,[22],39 ppm
same,CIMT [ppm] after storage at 21° C. 72 h,[22],28 ppm
same,CIMT [ppm] after storage at 21° C. 168 h,[22],16 ppm
same,CIMT [ppm] after storage at 21° C. 336 h,[22],5 ppm
same,CIMT [ppm] after storage at 21° C. 4 [h],[23],67 ppm
same,CIMT [ppm] after storage at 21° C. 24 h,[23],56 ppm
same,CIMT [ppm] after storage at 21° C. 72 h,[23],37 ppm
same,CIMT [ppm] after storage at 21° C. 168 h,[23],22 ppm
same,CIMT [ppm] after storage at 21° C. 336 h,[23],14 ppm
same,CIMT [ppm] after storage at 21° C. 4 [h],[24],83 ppm
same,CIMT [ppm] after storage at 21° C. 24 h,[24],76 ppm
same,CIMT [ppm] after storage at 21° C. 72 h,[24],64 ppm
same,CIMT [ppm] after storage at 21° C. 168 h,[24],47 ppm
same,CIMT [ppm] after storage at 21° C. 336 h,[24],28 ppm
same,CIMT [ppm] after storage at 21° C. 4 [h],[25],93 ppm
same,CIMT [ppm] after storage at 21° C. 24 h,[25],89 ppm
same,CIMT [ppm] after storage at 21° C. 72 h,[25],77 ppm
same,CIMT [ppm] after storage at 21° C. 168 h,[25],63 ppm
same,CIMT [ppm] after storage at 21° C. 336 h,[25],44 ppm
same,CIMT [ppm] after storage at 21° C. 4 [h],[26],102 ppm
same,CIMT [ppm] after storage at 21° C. 24 h,[26],96 ppm
same,CIMT [ppm] after storage at 21° C. 72 h,[26],88 ppm
same,CIMT [ppm] after storage at 21° C. 168 h,[26],75 ppm
same,CIMT [ppm] after storage at 21° C. 336 h,[26],61 ppm
same,CIMT [ppm] after storage at 21° C. 4 [h],[27],100 ppm
same,CIMT [ppm] after storage at 21° C. 24 h,[27],101 ppm
same,CIMT [ppm] after storage at 21° C. 72 h,[27],94 ppm
same,CIMT [ppm] after storage at 21° C. 168 h,[27],84 ppm
same,CIMT [ppm] after storage at 21° C. 336 h,[27],72 ppm
